Measurements as given in paper PMC12524408 (International Journal of Molecular Sciences, 2025).

Columns and labels:
Type in all cases: in vivo, mouse
[1] = test system: DSS-induced colitis; experiment: Effect of 25 nmol/kg PEG-AM in DSS-induced colitis (Study No. P180567); conditions: 25 nmol/kg single i.v. one day before DSS, vs control, n = 20
Excerpt: The detailed rationale for this choice is provided in the Discussion. Two groups (control and treatment with 25 nmol/kg PEG-AM) were compared, each consisting of 20 animals.  Figure 5 Effect of 25 nmol/kg PEG-AM in DSS-induced colitis (Study No. P180567). (a) Overview of the experimental design. Groups: vehicle (n = 20), PEG-AM 25 nmol/kg (n = 20). (b) Total inflammation scores on day 8. ** p < 0.01, Mann–Whitney U test. (c) Bloody stool scores on day 8, *** p < 0.001, Mann–Whitney U test. (d) Colon length. (e) Colon weight-to-length ratio, ** p < 0.01, unpaired t-test. (f) PEG-AM plasma concentrations on day 8. (g–j) Fold changes in gene expression of RAMP1 (g), RAMP2 (h), RAMP3 (i), and CLR (j). * p < 0.05, unpaired t-test. To evaluate the pharmacological effects of PEG-AM, three animal studies were conducted by the LSI Medience Corporation following the Animal Welfare Act and institutional approval. Seven-week-old male C57BL/6J JCL mice (CLEA Japan, Inc., Tokyo, Japan) were used in all studies and were housed under pathogen-free conditions. Colitis was induced with 3% (w/v) DSS (MW 5000) in drinking water for seven days. PEG-AM (1.0, 5.0, and 25 nmol/kg) or saline (control) was administered intravenously one day before DSS treatment. Each group included 10 mice. Stool consistency, bleeding, and body weight were evaluated on days −1, 0, 3, 5, and 7. A total inflammation score was calculated. Mice were anesthetized with 3% isoflurane (Zoetis Japan, Tokyo, Japan), and the colon was excised on day 7. Following the protocol described in Section 4.6.1, this study was conducted to confirm the efficacy of 25 nmol/kg intravenous PEG-AM. Each treatment group consisted of 20 mice.

[2] = test system: DSS-induced colitis; experiment: Therapeutic effect of PEG-AM after onset of DSS colitis (Study No. P200487); conditions: vs control, n = 6
Method: DSS was administered for five days to induce colitis, followed by the administration of PEG-AM or saline on day 5. DSS was replaced with water on day 6 to evaluate recovery. […] (a) Overview of the experimental design. Groups: vehicle (n = 6), PEG-AM 25 nmol/kg (n = 6), 250 nmol/kg (n = 6). (b) Time course of total inflammation scores after PEG-AM administration. (c) Colon length, * p < 0.05, one-way ANOVA followed by Dunnett’s multiple-comparisons test. ns, not significant. (d) Colon weight-to-length ratio, * p < 0.05, one-way ANOVA followed by Dunnett’s multiple-comparisons test. ns, not significant. (e) PEG-AM plasma concentrations on day 12. (f–i) Fold changes in gene expression of RAMP1 (f), RAMP2 (g), RAMP3 (h), and CLR (i). To evaluate the pharmacological effects of PEG-AM, three animal studies were conducted by the LSI Medience Corporation following the Animal Welfare Act and institutional approval. Seven-week-old male C57BL/6J JCL mice (CLEA Japan, Inc., Tokyo, Japan) were used in all studies and were housed under pathogen-free conditions. Colitis was induced with 2% (w/v) DSS (MW 36,000–50,000) for five days. On day 5, the mice were assigned to three groups and intravenously administered one of PEG-AM (25 or 250 nmol/kg) or saline. On day 6, DSS was replaced with water. Clinical symptoms were evaluated on days 5, 8, 10, and 12. The inflammation scores were calculated. Colons were collected on day 12 under isoflurane anesthesia.

[3] = test system: RAMP1, RAMP2, RAMP3, CLR; experiment: Gene expression of receptor components in distal colon, Study No. P180567; conditions: 25 nmol/kg i.v., qPCR, 2^-ΔΔCt, GAPDH normalization, vs control
Excerpt: Figure 5 Effect of 25 nmol/kg PEG-AM in DSS-induced colitis (Study No. P180567). (a) Overview of the experimental design. Groups: vehicle (n = 20), PEG-AM 25 nmol/kg (n = 20). (b) Total inflammation scores on day 8. ** p < 0.01, Mann–Whitney U test. (c) Bloody stool scores on day 8, *** p < 0.001, Mann–Whitney U test. (d) Colon length. (e) Colon weight-to-length ratio, ** p < 0.01, unpaired t-test. (f) PEG-AM plasma concentrations on day 8. (g–j) Fold changes in gene expression of RAMP1 (g), RAMP2 (h), RAMP3 (i), and CLR (j). * p < 0.05, unpaired t-test.
(§1) After measuring colon length and weight, distal colon tissue was collected, immersed in RNAlater (Thermo Fisher Scientific K.K.), and stored at −80 °C until RNA extraction. Total RNA was extracted using the RNeasy Micro Kit (Qiagen, Singapore) and quantified using a DeNovix DS-11 Microvolume Spectrophotometer. cDNA was synthesized from 2 μg of total RNA using a high-capacity cDNA Reverse Transcription Kit (Thermo Fisher Scientific K.K.). Quantitative PCR was performed using the StepOnePlus Real-Time PCR System (Applied Biosystems, Waltham, MA, USA) and TaqMan Gene Expression Assays for mouse RAMP1, RAMP2, RAMP3, CLR (CALCRL), and GAPDH (internal control). […]
All reactions were performed in duplicate. Relative expression levels were calculated using the 2^−ΔΔCt method with GAPDH normalization.

[4] = test system: RAMP1, RAMP2, RAMP3, CLR; experiment: Gene expression of receptor components in distal colon, Study No. P200487; conditions: 25 and 250 nmol/kg i.v., day 12, qPCR
Excerpt: Figure 6 Therapeutic effects of PEG-AM administered after disease onset in DSS-induced colitis (Study No. P200487). (a) Overview of the experimental design. Groups: vehicle (n = 6), PEG-AM 25 nmol/kg (n = 6), 250 nmol/kg (n = 6). (b) Time course of total inflammation scores after PEG-AM administration. (c) Colon length, * p < 0.05, one-way ANOVA followed by Dunnett’s multiple-comparisons test. ns, not significant. (d) Colon weight-to-length ratio, * p < 0.05, one-way ANOVA followed by Dunnett’s multiple-comparisons test. ns, not significant. (e) PEG-AM plasma concentrations on day 12. (f–i) Fold changes in gene expression of RAMP1 (f), RAMP2 (g), RAMP3 (h), and CLR (i).
as §1

Substance: 40 kDa PEGylated adrenomedullin [PEG-AM]
- Bloody stool score on day 8 ([1]; p = 0.0008, Mann-Whitney U test): significantly lower
- Colon weight per unit length ([1]; p = 0.0024, unpaired t-test): significantly lower
- Total inflammation score on day 8 ([1]; p = 0.0062, Mann-Whitney U test): significantly lower
- Colon length ([1]; p = 0.1429, unpaired t-test): not significantly different
- Colon weight per unit length ([2]; 250 nmol/kg i.v. on day 5 after DSS onset, day 12, p = 0.039, Dunnett's test): significantly lower
- Total inflammation scores over time ([2]; 25 or 250 nmol/kg i.v. on day 5 after 2% DSS (MW 36,000-50,000) for five days, days 5-12): did not significantly alter
- Colon length ([2]; i.v. on day 5 after DSS onset, day 12, p = 0.014, one-way ANOVA with Dunnett's test, dose group not given): significantly longer
- Gene expression of receptor components (RAMP1, RAMP2, RAMP3, CLR) [3]: no downregulation
- RAMP2 expression [4]: increased in a dose-dependent manner; however, the increase was not statistically significant
- Receptor component expression (RAMP1, RAMP2, RAMP3, CLR) [4]: No downregulation
